Here are results for 3 compounds from EP1087941B9, “THIOLESTERS AND USES THEREOF” (THE UNITED STATES OF AMERICA, as represented by THE …, priority 1998, dated 1999).

SMILES strings stand for the structures. “Also recorded” adds a separate entry of the source. Like-named read-outs stand apart in the source and are kept apart here.

For one experiment, the target named is T1, Pr^55gag precursor (Human immunodeficiency virus type 1 group M subtype B, UniProt P03347).
T1 construct: Visualization of viral proteins from TNFα-induced U1 cells by electrophoretic separation and immunoblotting; endogenous in cells; host or cells: TNFα-induced U1 cells (integrated HIV-1 provirus)
Nature of the experiment: Gag precursor cross-linking and processing in TNFα-induced U1 cells, Western blotting. As to conditions: for cross-linking of viral precursor polyproteins: TNFα-induced U1 cells, Western blotting; for Pr^55gag precursor processing: after reduction with β-ME, compound 45 at 100 µM. The experiment is classed as cell-based, HIV-1. As to the method: Thiolester compounds were also tested for their ability to inhibit HIV-1 replication in TNFα-induced U1 and ACH-2 cells. U1 cells were induced with 5 ng/ml of TNFα in the presence of various concentrations of the thiolesters 44, 45 or 47. Forty-eight hours later the cultures were characterized for virus p24 antigen production and cell viability. […] Compound 44 killed 60% of the cells at 200 µM. […] Precursor processing evaluation performed as described by Turpin (1997) Antiviral Chem. Chemother. 8:60-69. Thus, thiolester PATEs initiate intracellular disulfide cross-linking of precursor polyproteins during late phase virus assembly and mediate a direct virucidal effect via an attack on the mature NCp7 retroviral zinc fingers in the cell-free virus.
(§1) Virion cross linking was performed as described by Rice (1995) Science 270:1194-1197 and Turpin (1997) Antiviral Chem. Chemother. 8:60-67. Briefly, highly purified HIV-1 MN (11.8 µg total protein) was incubated for 2 hour with concentrations of compound. Virions were concentrated and residual compound was removed by centrifugation (18,000 x g, 1 h, 4°C). The viral pellet was solubilized in 0.5 M Tris-HCl,(pH 6.8), 50% glycerol, 8% SDS and 0.4% bromophenol blue and proteins resolved by Western blotting. Western blotting to detect the expression of HIV-1 proteins in U1 cells or virus pellets for virion cross-linking experiments was carried out as described by Turpin (1996) J. Virol. 70:6180-6189. Briefly, 50 µg of total cellular protein for U1 experiments or the total virion pellet (11.8 µg total viral protein) for NCp7 cross linking studies was resolved on 4 to 20% polyacrylamide gels in SDS with Tris-Glycine (Novex, San Diego CA). Samples for reduced gels were boiled for 5 min in the presence of 5% β-ME prior to loading. Resolved proteins were electroblotted on to polyvinylidene difluoride (PVDF) membranes, and HIV-1 specific proteins were detected using a mixture of goat anti- HIV-1 NCp7 and p24 or anti-NCp7 for virion proteins alone (a kind gift of L. E. Henderson, AIDS Vaccine Program NCI-FCRDC, Frederick, MD). Western blots were developed using standard chemiluminescence methodologies, as produced and described by Dupont-NEN, Wilmington, DE.
(In western blotting, separated proteins are transferred to a membrane and probed.)

The next experiment relates to HIV-1 NL4-3. Nature of the experiment: Virucidal (viral inactivation) assay on MAGI-CCR-5 cells. The experiment is classed as cell-based. As to the method:
The cell-based p24 attachment assay was performed as described in Rice (1995) Science 270:1194-1197. Viral inactivation assays were carried out as described in Rice (1995) Science 270:1194-1197, and Turpin (1997) supra, with minor modifications. Briefly, MAGI-CCR-5 cells were plated (4 x 10^4 cells per well) in flat bottomed 2-cm well plates for 24 h, after which the culture media was removed and compound-treated virus was added. The virus used was obtained by transient transfection of pNL4-3 into HeLa cells yielding the replication competent NL4-3 virus. Virus containing supernatants were treated for 2 h at 37°C after which residual compound was removed by centrifugation (18,000 x g, 1h, 4°C). Virus pellets were resuspended and placed on the MAGI-CCR-5 monolayers and cultured for 48 h. Monolayers were fixed and stained with X-gal solution and blue cells counted.
NCp7 cross-linking is associated with viral inactivation. Whether the ability to crosslink the nucleocapsid protein, as determined by Western blotting, correlated with the ability to inactivate the viruses was tested in a virucidal assay. Virus stocks of HIV-1 NL4-3 were incubated with various thiolester compounds. The virus was obtained by transient transfection of a replication-competent pNL4-3 plasmid into HeLa cells. Residual thiolester was removed by centrifugation. The virus pellet was resuspended in culture media and used to infect MAGI-CCR-5 cells. At 48 hours post-infection, the cells were washed and stained with X-Gal. Compounds 44 and 45 were virucidal with I50 (concentration resulting in 50% virus inactivation) values of 12.3 µM and 13.2 µM, respectively.

For experiment [1], the target named is T2, Virion-associated NCp7 proteins from cell-free HIV-1MN (Human immunodeficiency virus type 1 group M subtype B, UniProt P05888).
T2 construct: an attack on the mature NCp7 retroviral zinc fingers in the cell-free virus; endogenous in cells
Nature of the experiment: Intravirion NCp7 cross-linking, non-reducing Western blotting. The method, then:
The interaction of zinc finger inhibitors, such as the thiolesters of the invention, with cell-free virus can result in modification of intravirion NCp7 protein and loss of infectivity. Virion-associated NCp7 proteins from cell-free HIV-1MN were treated with thiolester compounds 44 and 45. They were also evaluated by non-reducing Western blotting using HIV-1 NCp7-specific antibodies. […] Cross-linking by compound 45 was due to formation of intermolecular disulfide bonds because reduction with 2-mercaptoethanol (β-ME) completely reversed the gel retardation.
as §1
Purified concentrated retrovirus and antisera against the purified NC protein of the virus can be used to test the ability of a specific compound to penetrate the virus and react with the NC protein by forming disulfide complexes in the core of the virus. Compound are mixed with the whole retrovirus under reaction conditions appropriate for the compound. The virus is then removed from the reagent by centrifugation and disrupted in, e.g., standard SDS-PAGE sample buffer with (reduced) and without (non-reduced) 2-mercaptoethanol. […] Thus, compounds of interest (i.e., those which cause cross-linking), including the thiolesters of the invention, reduce the amount of monomeric zinc finger protein detected.

[2] abbreviates: Human immunodeficiency virus 1, NL43, MAGI-CCR5, read-out: Virucidal Activity (I50 µM).
Setting [3] is: Human immunodeficiency virus 1, NL43, MAGI-CCR5, read-out: virucidal I50 (concentration resulting in 50% virus inactivation).

For the compound `CC(=O)NS(=O)(=O)c1ccc(NC(=O)c2ccccc2SC(=O)CCCCBr)cc1` [Compound 44, N-[2-(5-bromovaleroylthio)benzoyl]sulfacetamide], on Pr^55gag precursor, the “cross-linking of viral precursor polyproteins” value is on record as “induced β-ME reversible alterations in the mobility of zinc finger containing HIV-1 precursor proteins”. Moreover, the IC50 in the experiment on HIV-1 NL4-3 (setting [2]) and with HIV-1 NL4-3 (setting [3]) was 12.3 µM each time. Besides, the “intravirion NCp7 cross-linking” value in experiment [1] was “very poor cross-linking agent”.

`CC(=O)NS(=O)(=O)c1ccc(NC(=O)c2ccccc2SC(=O)CCCC[n+]2ccccc2)cc1` [Compound 45, N-[2-(5-pyridinio-valeroylthio)benzoyl]sulfacetamide bromide]: at Pr^55gag precursor, the “cross-linking of viral precursor polyproteins” value is recorded as “induced cross-linking of viral precursor polyproteins” and the “Pr^55gag precursor processing” value is listed as “inhibited Pr^55gag precursor processing”. Besides, in the experiment with HIV-1 NL4-3 (setting [2]), the IC50 is 13.2 µM. In addition, the IC50 in the experiment with HIV-1 NL4-3 (setting [3]) came to 13.2 µM. Also, in experiment [1], the “intravirion NCp7 cross-linking” value was “extensive cross-linking of NCp7; also recorded: strong cross-linker of intravirion NCp7”.

`O=C(CCCC[n+]1ccccc1)Sc1ccccc1C(=O)Nc1ccc(S(=O)(=O)c2ccc([N+](=O)[O-])cc2)cc1` [Compound 47]: the “cross-linking of viral precursor polyproteins” value on Pr^55gag precursor was “induced cross-linking of viral precursor polyproteins”. Further, the “Pr^55gag precursor processing” value at Pr^55gag precursor was “inhibited Pr^55gag precursor processing”. The IC50 with HIV-1 NL4-3 (setting [2]) and in the experiment on HIV-1 NL4-3 (setting [3]) was 2.1 µM in each case. Moreover, the “intravirion NCp7 cross-linking” value in experiment [1] is “did not effectively initiate NCp7 cross-linking”.
